Reference: USRE43029E1, “Process for preparing a creatine heterocyclic acid salt and method of use” (Bio-Engineered Supplements & Nutrition, Inc., priority 2003, dated 2011)

How the values were obtained:
[1] = cited from earlier work
[2] = cited from earlier work; remark: listed apart in the source
[3] = four 5 gram per day; 30 second bouts of maximal isokinetic cycling; cited from earlier work
[4] = 20 grams a day for 5 days; five of the eight subjects; cited from earlier work
[5] = in vivo; cited from earlier work
[6] = TriCreatine Orotate method of use, 4 weeks post-workout oral supplementation; assay type: in vivo, human; details: weight trained person, 5 grams orally post workout, end of 4 week period
From the text: In this example a experienced weight trained person orally consumes 5 grams of tricreatine orotate post workout for 4 weeks with beverage. Glucose or any insulin potentiating compound may added for even greater results. In this instance the tricreatine orotate is incorporated into free powder mixture of flavoring agents and D-glucose, which is then combined with water. Once in the plasma tricreatine orotate then exerts a synergistic lean tissue promoting effect due to the anabolic actions of creatine and orotic acid. The creatine enhances phophocreatine resynthesis and attracts water to intercellular component of the muscle cell, which in turn activates protein synthesis while the orotic acid promotes uridine phosphates and glycogen synthesis. The previously mentioned physiological functions lead to increases in lean body mass, strength, endurance, recovery and loss of fat tissue. At the end of the 4 week period the individual reported a 6 pound weight gain, a 20 pound increase in […] 1 repetition maximum bench press, and a 5 repetition increase in […] initial 70 percent maximum bench press. These increases contribute to the regulation of athletic function and thus lead to enhanced physical performance.

CN(CC(=O)O)C(=N)N.O [creatine monohydrate]
rise in plasma creatine concentration ([1]; 1 gram dose): only a modest rise
time of mean peak plasma creatine ([1]; 5 gram dose): 1 h
total creatine content of the quadriceps ([2]; 5 grams four to six times a day for 2 or more days): significant increase
creatine uptake ([2]; first two days of supplementation, six 5 gram doses): 32%
creatine taken up measured as phosphocreatine (PCr) ([2]; in vivo): ≥ 20%

CN(CC(=O)O)C(=N)N [creatine]
peak power output and mean power output [3]: significantly increased
muscle total creatine concentration and phosphocreatine resynthesis [4]: substantially increased

O=C(O)c1cc(=O)[nH]c(=O)[nH]1 [orotic acid, 1,2,3,6-Tetrahydro-2,6-dioxo-4-pyrimidecarboxylic acid]
growth and functional maturation of animals [5]: significant acceleration

Tricreatine orotate
increase in 1 repetition maximum bench press [6]: 20 pound
increase in initial 70 percent maximum bench press [6]: 5 repetition
weight gain [6]: 6 pound
